A short description of data set [1]: Cytotoxicity assay (CellTiter-Glo). In kind it is cell-based. The note with it: human, 72 h incubation, concentration resulting in 50% luminescent signal. Here is the method:
(§1) Further to the above Examples, representative compounds, prepared according to the examples were tested for potency in an HCV replicon assay (Genotype 1b) for activity against the virus (EC50) and toxicity to the cells (CC50).
(§2) Huh7 Replicon Cell Lines and Cell Culture Conditions: A luciferase-reporter genotype 1b subgenomic replicon cell line, and a genotype 1a full-length replicon cell line were obtained from Apath, LLC, Brooklyn, N.Y.: All cell lines were passaged twice a week by splitting 4 or 6 fold. Cells were maintained in DMEM-high glucose medium (HyClone, Logan, Utah) supplemented with 9% FBS (HyClone), 2 mM glutamine (Invitrogen, Carlsbad, Calif.), 100 U/mL PenStrep (Invitrogen). Media also contained 0.25 mg/mL of the antibiotic G-418 to maintain stable expression of the replicon (Invitrogen). Incubation was performed at 37° C. in 5% CO2 atmosphere. Replicon cell lines were used until they accumulated 15-to-18 passages, after which cells were restarted from the frozen stock. Seeding cell counts were routinely determined using an automatic Cedex HiRes cell counter (Flownomics Analytical Instruments, Madison, Wis.) or manually using INCYTO C-Chip™ Disposable Hemacytometers (Fisher Scientific, Pittsburg, Pa.).
Cytotoxicity Assay. Cells were seeded into 96-well plates at a density of 2×10^4 cells per well. 24 h after cell plating, 11 serial 2× compound dilutions, starting with 100 µM, were applied to the testing plates (3 repeats per compound dilution). Each testing plate was run with a “no-compound” control. Incubation with compounds was continued at 37° C. in a CO2 incubator for 72 h. To determine cell viability, the CellTiter-Glo® assay (Promega, Madison, Wis.) was performed according to the manufacturer's protocol. The compound concentration resulting in 50% luminescent signal was reported as the CC50 concentration.
A general note: ATP-based viability assays read luminescence as a measure of living cells.

In data set [2] the test system is HCV replicon (Genotype 1b). As to the kind of experiment: Luciferase genotype 1b replicon potency assay. It is filed as cell-based, hepatitis C virus. The note with it: Renilla luciferase reporter activity, 50% decrease vs untreated cells. How it is done: as §1, §2
Luciferase Genotype 1b Replicon Potency Assay. Replicon cells were seeded into white 96-well plates (Nunc/VWR) at a density of 2×10^4 cells/well in medium without G-418. A Stacker Multidrop Liquid Dispenser (MTX Lab Systems, Vienna, Va.) was employed to ensure uniform and fast cell seeding into multiple plates. 18-24 h after cell plating, inhibitors were added and cells were incubated for additional 24, 48, or 72 h (as indicated). Compounds were tested in triplicates and quadruplicates at 3× or 4× serial dilutions over a range of 0.0001-to-10 μM concentrations. HCV replication was monitored by Renilla luciferase reporter activity assay using Renilla luciferase reporter (Promega, Madison, Wis.) and a Veritas Luminometer (Turner Biosystems, Sunnyvale, Calif.). 50% and 90% inhibitory concentration (IC50 and IC90) values were calculated as the concentration of compound that results correspondingly in 50% and 90% decreases in the reporter expression as compared to untreated cells. The values were determined by non-linear regression (four-parameter sigmoidal curve fitting) analysis.

Where [3] appears, read: Hepatitis C virus, Huh-7, Huh7 luciferase-reporter genotype 1b subgenomic replicon cells.
[4] abbreviates: Huh7 HCV replicon cells (genotype 1b).

Some results are limits rather than exact numbers.

In the case of `COc1nc(N)nc2c1ncn2[C@@H]1O[C@H](COP(=O)(N[C@@H](C)C(=O)OCC(C)(C)C)Oc2cccc3ccccc23)[C@H](F)[C@@]1(C)O` (stereo partly drawn) [Example 29, (2S)-Neopentyl 2-((((2R,3S,4S,5R)-5-(2-amino-6-methoxy-9H-purin-9-yl)-3-fluoro-4-hydroxy-4-methyltetrahydrofuran-2-yl)methoxy)(naphthalen-1-yloxy)phosphorylamino)propanoate], it took 40 µM to reach half-maximal cytotoxicity in data set [1] (CC50 at 72 h). Besides, the IC50 in data set [2] (setting [3]) was determined as 26 µM.
The compound `COc1nc(N)nc2c1ncn2[C@H]1O[C@H](CO)[C@@H](F)[C@]1(C)O` [Example 4, (2S,3R,4R,5R)-2-(2-Amino-6-methoxy-9H-purin-9-yl)-4-fluoro-5-(hydroxymethyl)-3-methyltetrahydrofuran-3-ol] registered a CC50 at 72 h in data set [1] (setting [4]) greater than 100 µM. The IC50 in data set [2] (setting [3]) was greater than 100 µM.
As for `CCCCOC(=O)[C@H](C)NP(=O)(OC[C@H]1O[C@@H](n2cnc3c(OC)nc(N)nc32)[C@](C)(O)[C@@H]1F)Oc1cccc2ccccc12` (stereo partly drawn) [Example 14, (2S)-butyl 2-((((2R,3R,4S,5R)-5-(2-amino-6-methoxy-9H-purin-9-yl)-3-fluoro-4-hydroxy-4-methyltetrahydrofuran-2-yl)methoxy)(naphthalen-1-yloxy)phosphorylamino)propanoate], the half-maximal cytotoxic concentration (CC50) at 72 h in data set [1] came to 40 µM. For the same compound, in data set [2] (setting [3]), the IC50 was found to be 0.33 µM.
The like results for `CCOc1nc(N)nc2c1ncn2[C@@H]1O[C@H](COP(=O)(N[C@@H](C)C(=O)OC2CCCC2)Oc2cccc3ccccc23)[C@@H](F)[C@@]1(C)O` (stereo partly drawn) [Example 21, (2S)-Cyclopentyl 2-((((2R,3R,4S,5R)-5-(2-amino-6-ethoxy-9H-purin-9-yl)-3-fluoro-4-hydroxy-4-methyltetrahydrofuran-2-yl)methoxy)(naphthalen-1-yloxy)phosphorylamino)propanoate] were, in that order, 28 µM and 0.4 µM.
In data set [1], `COc1nc(N)nc2c1ncn2[C@@H]1O[C@H](COP(=O)(N[C@@H](C)C(=O)OCCC(C)(C)C)Oc2cccc3ccccc23)[C@@H](F)[C@@]1(C)O` (stereo partly drawn) [Example 15, (2S)-3,3-Dimethylbutyl 2-((((2R,3R,4S,5R)-5-(2-amino-6-methoxy-9H-purin-9-yl)-3-fluoro-4-hydroxy-4-methyltetrahydrofuran-2-yl)methoxy)(naphthalen-1-yloxy)phosphorylamino)propanoate] had a CC50 at 72 h of 21 µM. In addition, it took 0.5 µM to reach half-maximal inhibition in data set [2] (setting [3]) (IC50).
The like results for `C[C@H](NP(=O)(OC[C@H]1O[C@@H](n2cnc3c(N4CCC4)nc(N)nc32)[C@](C)(O)[C@@H]1F)Oc1cccc2ccccc12)C(=O)OC1CCCC1` (stereo partly drawn) [Example 24, (2S)-Cyclopentyl 2-((((2R,3R,4S,5R)-5-(2-amino-6-(azetidin-1-yl)-9H-purin-9-yl)-3-fluoro-4-hydroxy-4-methyltetrahydrofuran-2-yl)methoxy)(naphthalen-1-yloxy)phosphorylamino)propanoate] were, in that order, 50 µM and 0.9 µM.
The like results for `C[C@H](NP(=O)(OC[C@H]1O[C@@H](n2ccc(N)nc2=O)[C@](C)(O)[C@@H]1F)Oc1cccc2ccccc12)C(=O)OCC(C)(C)C` (stereo partly drawn) [Example 32, (2S)-Neopentyl 2-((((2R,3R,4S,5R)-5-(4-amino-2-oxopyrimidin-1(2H)-yl)-3-fluoro-4-hydroxy-4-methyltetrahydrofuran-2-yl)methoxy)(naphthalen-1-yloxy)phosphorylamino)propanoate] were, in that order, greater than 100 µM and greater than 40 µM.
With `COc1nc(N)nc2c1ncn2[C@@H]1O[C@H](COP(=O)(N[C@@H](C)C(=O)OCc2ccc(F)cc2F)Oc2cccc3ccccc23)[C@@H](F)[C@@]1(C)O` (stereo partly drawn) [Example 13, (2S)-2,4-Difluorobenzyl 2-((((2R,3R,4S,5R)-5-(2-amino-6-methoxy-9H-purin-9-yl)-3-fluoro-4-hydroxy-4-methyltetrahydrofuran-2-yl)methoxy)(naphthalen-1-yloxy)phosphorylamino)propanoate], the CC50 at 72 h in data set [1] was found to be 68 µM. Besides, the IC50 in data set [2] (setting [3]) was 1 µM.
`COc1nc(N)nc2c1ncn2[C@@H]1O[C@H](COP(=O)(N[C@H](C(=O)OCc2ccccc2)C(C)C)Oc2cccc3ccccc23)[C@@H](F)[C@@]1(C)O` (stereo partly drawn) [Example 26, (2S)-Benzyl 2-((((2R,3R,4S,5R)-5-(2-amino-6-methoxy-9H-purin-9-yl)-3-fluoro-4-hydroxy-4-methyltetrahydrofuran-2-yl)methoxy)(naphthalen-1-yloxy)phosphorylamino)-3-methylbutanoate] came in with a CC50 at 72 h in data set [1] of 14 µM. Moreover, the IC50 in data set [2] (setting [3]) was determined as 4 µM.
`C[C@@]1(O)[C@H](F)[C@@H](CO)O[C@H]1n1cnc2c(N)ncnc21` [Example 8, (2R,3S,4R,5R)-2-(6-Amino-9H-purin-9-yl)-4-fluoro-5-(hydroxymethyl)-3-methyltetrahydrofuran-3-ol] gave a CC50 at 72 h in data set [1] (setting [4]) greater than 100 µM. This compound also registered an IC50 in data set [2] (setting [3]) greater than 100 µM.
In turn, `C[C@H](NP(=O)(OC[C@H]1O[C@@H](n2ccc(=O)[nH]c2=O)[C@](C)(O)[C@@H]1F)Oc1cccc2ccccc12)C(=O)OCC(C)(C)C` (stereo partly drawn) [Example 33, (2 S)-Neopentyl 2-((((2R,3R,4S,5R)-5-(2,4-dioxo-3,4-dihydropyrimidin-1(2H)-yl)-3-fluoro-4-hydroxy-4-methyltetrahydrofuran-2-yl)methoxy)(naphthalen-1-yloxy)phosphorylamino)propanoate] yielded a 50% cytotoxic concentration (CC50) at 72 h in data set [1] of 75 µM. In addition, the IC50 in data set [2] (setting [3]) was greater than 40 µM.
`C[C@@]1(O)[C@H](F)[C@@H](CO)O[C@H]1n1cnc2c(N3CCC3)nc(N)nc21` [Example 7, (2R,3S,4R,5R)-2-(2-Amino-6-(azetidin-1-yl)-9H-purin-9-yl)-4-fluoro-5-(hydroxymethyl)-3-methyltetrahydrofuran-3-ol] yielded a cytotoxic concentration (CC50) at 72 h in data set [1] (setting [4]) greater than 100 µM. In addition, the IC50 in data set [2] (setting [3]) was 24 µM; in data set [2] (Huh7 luciferase-reporter genotype 1b subgenomic replicon cells), greater than 40 µM.
The compound `COc1nc(N)nc2c1ncn2[C@@H]1O[C@H](COP(=O)(N[C@@H](C)C(=O)OCc2ccccc2)Oc2cccc3ccccc23)[C@H](F)[C@@]1(C)O` (stereo partly drawn) [Example 28, (2S)-Benzyl 2-((((2R,3S,4S,5R)-5-(2-amino-6-methoxy-9H-purin-9-yl)-3-fluoro-4-hydroxy-4-methyltetrahydrofuran-2-yl)methoxy)(naphthalen-1-yloxy)phosphorylamino)propanoate] showed a CC50 at 72 h in data set [1] of 92 µM. Besides, the concentration for half-maximal inhibition (IC50) in data set [2] (setting [3]) is greater than 40 µM.
Take `C[C@@]1(O)[C@H](F)[C@@H](CO)O[C@H]1n1ccc(N)nc1=O` [Example 9, 4-Amino-1-((2R,3S,4R,5R)-4-fluoro-3-hydroxy-5-(hydroxymethyl)-3-methyltetrahydrofuran-2-yl)pyrimidin-2(1H)-one]: the CC50 at 72 h in data set [1] (setting [4]) is greater than 100 µM. The IC50 in data set [2] (setting [3]) is greater than 100 µM.
For the compound `CCOc1nc(N)nc2c1ncn2[C@@H]1O[C@H](COP(=O)(N[C@@H](C)C(=O)OC2CCCCC2)Oc2cccc3ccccc23)[C@@H](F)[C@@]1(C)O` (stereo partly drawn) [Example 22, (2S)-Cyclohexyl 2-((((2R,3R,4S,5R)-5-(2-amino-6-ethoxy-9H-purin-9-yl)-3-fluoro-4-hydroxy-4-methyltetrahydrofuran-2-yl)methoxy)(naphthalen-1-yloxy)phosphorylamino)propanoate], in data set [1], the CC50 at 72 h turned out to be 16 µM. Further, in data set [2] (setting [3]), the IC50 is 0.73 µM.
In data set [1], `C[C@H](NP(=O)(OC[C@H]1O[C@@H](n2cnc3c(N4CCC4)nc(N)nc32)[C@](C)(O)[C@@H]1F)Oc1cccc2ccccc12)C(=O)OC1CCCCC1` (stereo partly drawn) [Example 25, (2S)-Cyclohexyl 2-((((2R,3R,4S,5R)-5-(2-amino-6-(azetidin-1-yl)-9H-purin-9-yl)-3-fluoro-4-hydroxy-4-methyltetrahydrofuran-2-yl)methoxy)(naphthalen-1-yloxy)phosphorylamino)propanoate] gave a CC50 at 72 h of 33 µM. For the same compound, the IC50 in data set [2] (setting [3]) came out at 0.95 µM.
The like results for `C[C@H](NP(=O)(OC[C@H]1O[C@@H](n2cnc3c(N)ncnc32)[C@](C)(O)[C@@H]1F)Oc1cccc2ccccc12)C(=O)OCC(C)(C)C` (stereo partly drawn) [Example 31, (2S)-Neopentyl 2-((((2R,3R,4S,5R)-5-(6-amino-9H-purin-9-yl)-3-fluoro-4-hydroxy-4-methyltetrahydrofuran-2-yl)methoxy)(naphthalen-1-yloxy)phosphorylamino)propanoate] were, in that order, 31 µM and 11 µM.

As usually defined, the CC50 is the concentration at which the toxic effect on the cells reaches its halfway point. A high value points to lower toxicity to the cells. One may read the IC50 as the point on the concentration scale where inhibition reaches its midpoint. Low readings indicate inhibition by little substance, high ones a need for much substance.

Source of the values: patent US20140286903A1, “Substituted Purine Nucleosides, Phosphoramidate and Phosphordiamidate Derivatives for Treatment if Viral Infections” (INHIBITEX, INC., priority 2011, published 2014).
